Test results taken from patent US20050084505A1, “Utilization of ubiquinones for influencing the effect of histamine” (priority 2002, published 2005).

Columns and labels:
[1] = tested on: prepared lung tissue and trachea pieces of guinea pigs; conditions: tissue not aerated, cited from earlier work
[2] = tested on: Isolated, perfused and ventilated lungs from adult rats; assay: Isolated, perfused and ventilated rat lung, histamine-induced constriction
Experimental: Isolated, perfused and ventilated lungs from adult rats (280 to 330 g body weight) were injected with 50 pg of histamine per lung. After 2 to […], this caused constriction of the bronchial and pulmonary vessels with reduction of the lung extensibility.

[3] = upon the action of γ-globulin on lung tissue

SMILES: COC1=C(OC)C(=O)C(C/C=C(\C)CC/C=C(\C)CC/C=C(\C)CC/C=C(\C)CC/C=C(\C)CC/C=C(\C)CC/C=C(\C)CC/C=C(\C)CC/C=C(\C)CCC=C(C)C)=C(C)C1=O [CoQ-10, 2,3-dimethoxy-5-methyl-6-decaprenyl-1,4-benzoquinone]
- contraction of lung tissue by added histamine ([1]; continuously administered): increased
- secretion of SRS-A [1, 3]: reduced
- secretion of histamines [1, 3]: reduced
- spontaneous vasoconstriction of the lung vessels ([2]; 2.7 ppm in the perfusate, compared with control perfusion (even below)): decreased
- delayed histamine reaction (constriction of the bronchial and pulmonary vessels with reduction of the lung extensibility) ([2]; previous addition of 2.7 ppm in the perfusate, 50 pg of histamine per lung, reaction after 2 to 3 hours): completely prevented
